Data from patent publication US20250270213A1, “PI3Ka INHIBITORS” (Synnovation Therapeutics, Inc., priority 2022, published 2025).
pIC50: −log10 of the molar value.

Tested on: T47D (PIK3CA H1047R) cells
Experiment: pS473 AKT assay with 2.5% FBS, T47D cells
Format: cell-based
Details: Homo sapiens, pSer473 AKT, DMEM with 2.5% FBS, 2 h treatment, read-out: T47D_IC50
Protocol: Example B. pS473 AKT Assay Protocol with 2.5% FBS
T47D (PIK3CA H1047R) cells were cultured using 10-cm petri dishes with recommended medium plus 10% fetal bovine serum. One day before the assay, cells were seeded in 96-well plates. After overnight incubation, the medium was changed to DMEM with 2.5% fetal bovine serum (FBS) and the cells were treated with different concentrations of the compounds for 2 h. Cells were then fixed using 4% paraformaldehyde at room temperature for 20 min. Aspirate 4% paraformaldehyde, and wash cells using 1× regular phosphate buffered saline 3 times, 5 min each. Aspirate any residual phosphate buffered saline and block cells using 10% goat serum containing 1% bovine serum albumin and 0.3% Triton X-100 at room temperature for 1 h. Without any additional washing, primary antibodies (rabbit anti-pSer473 AKT) were diluted using blocking buffer and added at a final volume of 50 microliter per well. Keep assay plates with primary antibodies overnight at 4° C. Wash cells using 1× regular phosphate buffered saline 3 times, 5 min each. After the final wash, incubate cells with horseradish peroxidase-conjugated secondary antibodies (goat Anti-rabbit IgG) diluted using the same blocking buffer at room temperature for 1 h. Wash cells thoroughly using 1× regular phosphate buffered saline 3 times, 5 min each. Aspirate any residual phosphate buffered saline. Add Super-Signal ELISA Pico Chemiluminescent Substrate at a final volume of 100 microliter per well. Read plates on i3x Multi-Mode Microplate Reader and calculate IC50 values using GraphPad Prism software.

pIC50	SMILES
> 6.00	CNC(=O)c1ccc(-c2nc(Cl)ccc2NC(C)c2cc(C)cc3c(=O)n(CC(F)F)c4c(cnn4CCO)c23)cn1 (stereo not drawn) [Example 260, 5-[6-Chloro-3-[1-[4-(2,2-difluoroethyl)-3-(2-hydroxyethyl)-7-methyl-5-oxo-pyrazolo[3,4-c]isoquinolin-9-yl]ethylamino]-2-pyridyl]-N-methyl-pyridine-2-carboxamide]
5.30 to 6.00	CC(=O)N1CC(n2ncc3c4c(C(C)Nc5ccc(Cl)nc5-c5ncn(CCO)n5)cc(C)cc4c(=O)n(C)c32)C1 (stereo not drawn) [Compound 102, 3-(1-acetylazetidin-3-yl)-9-(1-((6-chloro-2-(1-(2-hydroxyethyl)-1H-1,2,4-triazol-3-yl)pyridin-3-yl)amino)ethyl)-4,7-dimethyl-3,4-dihydro-5H-pyrazolo[3,4-c]isoquinolin-5-one]
> 6.00	COCCOc1ccc2c3c(C(C)Nc4ccccc4C(=O)O)cc(C)cc3c(=O)n(C)c2n1 (stereo not drawn) [Compound I-34, 2-[1-[3-(2-Methoxyethoxy)-5,8-dimethyl-6-oxo-benzo[c][1,8]naphthyridin-10-yl]ethylamino]benzoic acid]
> 6.00	Cc1cc(C(CO)Nc2ccc(Cl)nc2-c2nnco2)c2c(c1)c(=O)n1c3c2cnn3CCC1 (stereo not drawn) [Compound 331, 10-(1-((6-chloro-2-(1,3,4-oxadiazol-2-yl)pyridin-3-yl)amino)-2-hydroxyethyl)-8-methyl-4,5-dihydro-3H,6H-2,2a,5a-triazaaceanthrylen-6-one]
> 6.00	CCn1ncc2c3c(C(C)Nc4ccc(Cl)nc4-c4cncnc4)cc(C)cc3c(=O)n(C)c21 (stereo not drawn) [Compound 44, 9-(1-((6-chloro-2-(pyrimidin-5-yl)pyridin-3-yl)amino)ethyl)-3-ethyl-4,7-dimethyl-3,4-dihydro-5H-pyrazolo[3,4-c]isoquinolin-5-one]
> 6.00	CCn1c(=O)c2cc(C)cc(C(C)Nc3ccc(Cl)nc3-c3ncn(C)n3)c2c2cnn(C3CCN(C(=O)OC)C3)c21 (stereo not drawn) [Compound 150, methyl 3-(9-(1-((6-chloro-2-(1-methyl-1H-1,2,4-triazol-3-yl)pyridin-3-yl)amino)ethyl)-4-ethyl-7-methyl-5-oxo-4,5-dihydro-3H-pyrazolo[3,4-c]isoquinolin-3-yl)pyrrolidine-1-carboxylate]
> 6.00	CCn1ncc2c3c(C(C)Nc4ccc(Cl)nc4-c4ccc(=O)n(C)c4)cc(C)cc3c(=O)n(CC(F)F)c21 (stereo not drawn) [Example 239, 9-(1-((6-chloro-1′-methyl-6′-oxo-1′,6′-dihydro-[2,3′-bipyridin]-3-yl)amino)ethyl)-4-(2,2-difluoroethyl)-3-ethyl-7-methyl-3,4-dihydro-5H-pyrazolo[3,4-c]isoquinolin-5-one]
> 6.00	Cc1cc(C(C)Nc2ccccc2C(=O)O)c2c(c1)c(=O)n(C)c1nccn21 (stereo not drawn) [Compound I-14, 2-((1-(4,7-Dimethyl-5-oxo-4,5-dihydroimidazo[1,2-a]quinazolin-9-yl)ethyl)amino)benzoic acid]
> 6.00	CCn1c(=O)c2cc(C)cc(C(C)Nc3ccc(Cl)nc3-c3ccc(C(=O)NC)nc3)c2c2cnn(-c3ccccn3)c21 (stereo not drawn) [Example 271, 6-chloro-3-((1-(4-ethyl-7-methyl-5-oxo-3-(pyridin-2-yl)-4,5-dihydro-3H-pyrazolo[3,4-c]isoquinolin-9-yl)ethyl)amino)-N-methyl-[2,3′-bipyridine]-6′-carboxamide]
> 6.00	Cc1cc(C(C)Nc2ccccc2C(=O)O)c2c(c1)c(=O)n1c3c2cnn3C(C)CC1 (stereo not drawn) [Compound I-38, 2-((1-(3,8-Dimethyl-6-oxo-4,5-dihydro-3H,6H-2,2a,5a-triazaaceanthrylen-10-yl)ethyl)amino)benzoic acid]
> 6.00	CNC(=O)c1ccc(-c2nc(Cl)ccc2NC(C)c2cc(C)cc3c(=O)n(C)c4c(cnn4CCN4CCN(C)CC4)c23)cc1F (stereo not drawn) [Example 267, 4-(6-chloro-3-((1-(4,7-dimethyl-3-(2-(4-methylpiperazin-1-yl)ethyl)-5-oxo-4,5-dihydro-3H-pyrazolo[3,4-c]isoquinolin-9-yl)ethyl)amino)pyridin-2-yl)-2-fluoro-N-methylbenzamide]
> 6.00	Cc1cc(C(C)Nc2ccc(Cl)nc2-c2c[nH]nc2C)c2c(c1)c(=O)n(C)c1c(C(=O)N(C)C)ncn21 (stereo not drawn) [Compound 124, 9-(1-((6-Chloro-2-(3-methyl-1H-pyrazol-4-yl)pyridin-3-yl)amino)ethyl)-N,N,4,7-tetramethyl-5-oxo-4,5-dihydroimidazo[1,5-a]quinazoline-3-carboxamide]
> 6.00	Cc1cc(C(C)Nc2ccc(Cl)nc2-c2noc(=O)[nH]2)c2c(c1)c(=O)n1c3c2cnn3C(C)CC1 (stereo not drawn) [Compound 70, 3-(6-Chloro-3-((1-(3,8-dimethyl-6-oxo-4,5-dihydro-3H,6H-2,2a,5a-triazaaceanthrylen-10-yl)ethyl)amino)pyridin-2-yl)-1,2,4-oxadiazol-5(4H)-one]
> 6.00	Cc1cc(C(C)Nc2ccc(Cl)nc2-c2ncn(C)n2)c2c(c1)c(=O)n(C)c1c2cnn1C1CN(CCO)C1 (stereo not drawn) [Compound 89, 9-(1-((6-chloro-2-(1-methyl-1H-1,2,4-triazol-3-yl)pyridin-3-yl)amino)ethyl)-3-(1-(2-hydroxyethyl)azetidin-3-yl)-4,7-dimethyl-3,4-dihydro-5H-pyrazolo[3,4-c]isoquinolin-5-one]
> 6.00	[2H]C([2H])([2H])n1c(=O)c2cc(C)cc(C(C)Nc3ccc(Cl)nc3-c3noc(=O)[nH]3)c2c2cnn(CC)c21 (stereo not drawn) [Example 227, 3-(6-Chloro-3-((1-(3-ethyl-7-methyl-4-(methyl-d3)-5-oxo-4,5-dihydro-3H-pyrazolo[3,4-c]isoquinolin-9-yl)ethyl)amino)pyridin-2-yl)-1,2,4-oxadiazol-5(4H)-one]
> 6.00	Cc1cc(C(C)Nc2ccc(Cl)nc2-c2ncn(C)n2)c2c(c1)c(=O)n(C)c1c2cnn1C1CCN(C2COC2)CC1 (stereo not drawn) [Compound 179, 9-(1-((6-chloro-2-(1-methyl-1H-1,2,4-triazol-3-yl)pyridin-3-yl)amino)ethyl)-4,7-dimethyl-3-(1-(oxetan-3-yl)piperidin-4-yl)-3,4-dihydro-5H-pyrazolo[3,4-c]isoquinolin-5-one]
> 6.00	Cc1cc(C(C)Nc2ccc(Cl)nc2-c2ncn(C)n2)c2c(c1)c(=O)n(C)c1c2cnn1C1CCCN(C)C1 (stereo not drawn) [Example 277, 9-[1-[[6-Chloro-2-(1-methyl-1,2,4-triazol-3-yl)-3-pyridyl]amino]ethyl]-4,7-dimethyl-3-(1-methyl-3-piperidyl)pyrazolo[3,4-c]isoquinolin-5-one]
> 6.00	CCn1ncc2c3c(C(C)Nc4ccc(C)nc4-c4noc(=O)[nH]4)cc(C)cc3c(=O)n(C)c21 (stereo not drawn) [Compound 327, 3-(3-((1-(3-Ethyl-4,7-dimethyl-5-oxo-4,5-dihydro-3H-pyrazolo[3,4-c]isoquinolin-9-yl)ethyl)amino)-6-methylpyridin-2-yl)-1,2,4-oxadiazol-5(4H)-one]
> 6.00	CC(=O)N1CCC(c2ncn3c4c(C(C)Nc5ccc(Cl)nc5-c5ncn(C)n5)cc(C)cc4c(=O)n(C)c23)CC1 (stereo not drawn) [Compound 132, 3-(1-Acetylpiperidin-4-yl)-9-(1-((6-chloro-2-(1-methyl-1H-1,2,4-triazol-3-yl)pyridin-3-yl)amino)ethyl)-4,7-dimethylimidazo[1,5-a]quinazolin-5(4H)-one]
> 6.00	COc1cc(-c2nc(Cl)ccc2NC(C)c2cc(C)cc3c(=O)n(C)c4c(cnn4CCO)c23)ccn1 (stereo not drawn) [Example 256, 9-[1-[[6-chloro-2-(2-methoxy-4-pyridyl)-3-pyridyl]amino]ethyl]-3-(2-hydroxyethyl)-4,7-dimethyl-pyrazolo[3,4-c]isoquinolin-5-one]
> 6.00	CCn1ncc2c3c(C(C)Nc4ccc(Cl)nc4-c4ccnc(C)c4)cc(C)cc3c(=O)n(CC(F)F)c21 (stereo not drawn) [Example 237, 9-(1-((6-chloro-2′-methyl-[2,4′-bipyridin]-3-yl)amino)ethyl)-4-(2,2-difluoroethyl)-3-ethyl-7-methyl-3,4-dihydro-5H-pyrazolo[3,4-c]isoquinolin-5-one]
> 6.00	Cc1cc(C(C)Nc2ccc(Cl)nc2-c2ccncc2F)c2c(c1)c(=O)n(C)c1c2cnn1CCN1CCN(C)CC1 (stereo not drawn) [Example 265, 9-(1-((6-chloro-3′-fluoro-[2,4′-bipyridin]-3-yl)amino)ethyl)-4,7-dimethyl-3-(2-(4-methylpiperazin-1-yl)ethyl)-3,4-dihydro-5H-pyrazolo[3,4-c]isoquinolin-5-one]
> 6.00	Cc1cc(C(C)Nc2ccc(Cl)nc2-c2ncn(C)n2)c2c(c1)c(=O)n(C)c1nn(C3CCN(C)CC3)cc21 (stereo not drawn) [Example 208, 9-(1-((6-chloro-2-(1-methyl-1H-1,2,4-triazol-3-yl)pyridin-3-yl)amino)ethyl)-4,7-dimethyl-2-(1-methylpiperidin-4-yl)-2,4-dihydro-5H-pyrazolo[3,4-c]isoquinolin-5-one]
> 6.00	Cc1cc(C(C)Nc2ccc(Cl)nc2-c2cnn(C)c2)c2c(c1)c(=O)n(C)c1c2cnn1C1CCN(C[C@@H](C)O)CC1 (stereo partly drawn) [Compound 173, 9-[1-[[6-chloro-2-(1-methylpyrazol-4-yl)-3-pyridyl]amino]ethyl]-3-[1-[(2R)-2-hydroxypropyl]-4-piperidyl]-4,7-dimethyl-pyrazolo[3,4-c]isoquinolin-5-one]
